Our source for the zone of inhibition values is ChEMBL document CHEMBL1150697, “Isolation and structure determination of an antimicrobial ester from a marine sediment-derived bacterium” (2003).

Structures are written as SMILES.

Type in all cases: functional
Common to all, as to conditions: read-out: IZ

In one test the test system is Klebsiella pneumoniae. The test can be described thus: Antimicrobial activity against sKlebsiella pneumoniae at 1000 ug/mL after 24 hrs by paper disk diffusion method. On the technique in general: Agar diffusion results depend on both activity and mobility in agar.
The next test deals with Escherichia coli. The test is described as follows: Antimicrobial activity against Escherichia coli at 1000 ug/mL after 24 hrs by paper disk diffusion method.
The next test has as its system Priestia megaterium. The test can be described thus: Antimicrobial activity against Bacillus megaterium at 1000 ug/mL after 24 hrs by paper disk diffusion method.
Another test relates to Micrococcus luteus. The test can be described thus: Antimicrobial activity against Micrococcus luteus at 1000 ug/mL after 24 hrs by paper disk diffusion method.
The test system of the next test is Staphylococcus aureus. The test can be described thus: Antimicrobial activity against Staphylococcus aureus at 1000 ug/mL after 24 hrs by paper disk diffusion method.
For a further test, the system named is Saccharomyces cerevisiae. The test is described as follows: Antimicrobial activity against Saccharomyces cerevisiae at 1000 ug/mL after 24 hrs by paper disk diffusion method.
The test system of a further test is Alcaligenes faecalis. The test can be described thus: Antimicrobial activity against Alcaligenes faecalis at 1000 ug/mL after 24 hrs by paper disk diffusion method.

Turning to `CCC(O)CC1CCC(C(C)C(=O)OC(C)CC2CCC(C(C)C(=O)O)O2)O1` (configuration not stated) [BONACTIN], the zone of inhibition at 1000 µg/mL in the test on Klebsiella pneumoniae is 8.5 mm; in the test on Escherichia coli it was 9 mm; in the test on Priestia megaterium, 8 mm; in the test with Micrococcus luteus, 8 mm; with Staphylococcus aureus it was 7 mm; in the test on Saccharomyces cerevisiae, 7.5 mm. For the same compound, the zone of inhibition at 1000 µg/mL in the test with Alcaligenes faecalis is 10 mm.
